In ChEMBL document CHEMBL1134667, “Physicochemical determinants of passive membrane permeability: role of solute hydrogen-bonding potential and volume” (J Med Chem, 2001):

Key:
[1] = Partition coefficient (logP); conditions: octanol/water
[2] = Partition coefficient (logP) (heptane); conditions: heptane/water
[3] = Partition coefficient (logP) (heptane/glycol); conditions: heptane/ethylene glycol
[4] = Basolateral to apical effective permeability; conditions: not told
[5] = Apical to basolateral effective permeability; conditions: not told

Compound | logP [1] | logP [2] | logP [3] | Papp B→A [4] | Papp A→B [5]
CC(=O)N[C@@H](C(=O)NCCc1ccccc1)C(C)C | 1.59 | -2.64 | -3.77 |  | 
CNC(=O)[C@@H](Cc1ccccc1)NC(=O)[C@H](NC(C)=O)C(C)C | 0.66 | -5.33 | -5.79 | 1.84 ×10⁻⁶ cm/s | 0.91 ×10⁻⁶ cm/s
CC(=O)N[C@H](CC1CCCCC1)C(=O)NCCc1ccccc1 | 3.13 | -0.9 | -3.41 | 58.4 ×10⁻⁶ cm/s | 58.3 ×10⁻⁶ cm/s
CC(=O)N[C@H](Cc1ccccc1)C(=O)NCCc1ccccc1 | 2.32 | -2 | -3.7 |  | 
CC(=O)NCC(=O)NCCc1ccccc1 | 0.48 | -3.73 | -5 | 20.6 ×10⁻⁶ cm/s | 21.9 ×10⁻⁶ cm/s
